Assay results taken from US10808283B2, “Methods and kits for the molecular subtyping of tumors” (BioNTech Diagnostics GmbH, priority 2013, dated 2020).

Key:
[1] = tested on: HER2-positive tumor patients; experiment: Kaplan Meier analysis of overall survival, HER2-positive tumor patients; type: in vivo, human; conditions: for HR, overall survival: docetaxel vs vinorelbine; for overall survival: 5 year time point
From the text: FIG. 14 depicts a Kaplan Meier analysis of the overall survival of HER2-positive tumor patients. […] B: Similar results are shown for tumors subtyped by IHC (86% vs. 89%, HR 1.175; CI 0.518-2.663).
(§1) For the evaluation of breast tumors, 855 out of 1010 breast cancer patients of the FinHER study (Joensuu et al. (2006), N Engl J Med, 354:809-820) could be used. The mean cut-off values (given as 40-ΔCT values) were as follows: HER2: 38; ESR1: 34; PGR: 30,2; Ki67: 31.7; and RACGAP1: 34.2. The cut-off values for HER2 and ESR1 were determined based on evaluation of previous studies (Koutras et al. (2008), Brit. J. of Cane., 99:1775-1785; Pentheroudakis et al. (2009), Breast Cancer Res Treat 2009, 116:131-143) using 268 samples and were applied to the FinHER study (proportional hazards model validation). CALM2 served as reference gene.
(§2) FIGS. 10 to 19 depict Kaplan-Meier survival curves for different tumor subtypes (luminal B, HER2-positive, luminal A, and triple-negative breast cancer [TNBC]) treated with different chemotherapy agents (docetaxel or vinorelbine). Subytpes defined by RT-qPCR according to the present invention are shown in panel A, whereas subtypes defined by IHC are shown in panel B. Dotted lines mark the 5 year time point for outcome calculations.

[2] = FinHER clinical trial; docetaxel compared with vinorelbine; cited from earlier work
[3] = tested on: luminal A tumors; experiment: Kaplan Meier analysis of overall survival, luminal A tumors; type: in vivo, human; conditions: for HR, overall survival: docetaxel vs vinorelbine; for overall survival: 5 year time point
From the text: FIG. 16 depicts a Kaplan Meier analysis of overall survival of luminal A tumors. […] B: By contrast, when defined by IHC, luminal A patients show a weak, yet non-significant trend towards longer overall survival (97 vs. 93% HR 0.443; CI 0.114-1.716) when treated with docetaxel as compared to vinorelbine.
as §1, §2

[4] = tested on: HER2-positive tumors; experiment: Kaplan Meier analysis of distant metastasis free survival, HER2-positive tumors; type: in vivo, human; conditions: for HR, DMFS: docetaxel vs vinorelbine; for distant metastasis free survival: 5 year time point
Experimental: FIG. 15 depicts a Kaplan Meier analysis of distant metastasis free survival of HER2-positive tumors.
as §1, §2

[5] = tested on: patients with luminal B tumors; experiment: Kaplan Meier analysis of overall survival, FinHER patients with luminal B tumors; type: in vivo, human; design: overall survival: concentration or dose not given beside the values; conditions: for HR, overall survival: docetaxel vs vinorelbine
From the text: FIG. 10 depicts a Kaplan Meier analysis of the overall survival of patients with luminal B tumors. […] B: en the tumor subtype is defined by IHC, the benefit of docetaxel for luminal B patients cannot be shown (95% vs. 92%, HR 0.617; CI 0.235-1.623).
FIG. 11 depicts a Kaplan Meier analysis of the overall survival of patients with luminal B tumors, adjusted for tumor histologic type by Cox Regression as specified in the SAP. A: The prediction of the docetaxel benefit by RT-qPCR kit remains significant (97% vs. 88%, HR 0.232; CI 0.087-0.624). B: Subtyping by IHC is not predictive for a docetaxel benefit (96% vs. 92%, HR 0.510; CI 0.184-1.414).
as §1, §2

[6] = tested on: TNBC tumor patients; experiment: Kaplan Meier analysis of overall survival, TNBC tumor patients; type: in vivo, human; conditions: for HR, overall survival: docetaxel vs vinorelbine; for overall survival: 5 year time point
From the text: FIG. 18 depicts a Kaplan Meier analysis of overall survival of TNBC tumor patients. […] B: When defined by IHC, TNBC patients show a weak, yet non-significant trend towards longer overall survival (88% vs. 80%, HR 0.552; CI 0.207-1.472).
as §1, §2

[7] = tested on: luminal B tumor patients; experiment: Kaplan Meier analysis of distant metastasis free survival (DMFS), luminal B tumor patients; type: in vivo, human; conditions: for distant metastasis free survival: adjusted for number of metastatic lymph nodes, tumor size and histologic type, 5 years; for distant metastasis free survival (DMFS): 5 year time point
From the text: FIG. 12 depicts a Kaplan Meier analysis of distant metastasis free survival (DMFS) of luminal B tumor patients. A: When defined by RT-qPCR, luminal B patients have a higher probability to remain free of distant metastasis when treated with docetaxel-FEC as compared to vinorelbine-FEC (89% vs. 78% respectively, HR 0.471; CI 0.263-0.843). B: When luminal B tumors are defined by IHC, survival differences are not observed between different treatment regimens (87% vs. 86%, HR 0.938 CI 0.474-1.856).
FIG. 13 depicts a Kaplan Meier analysis of distant metastasis free survival of patients with luminal B tumors, adjusted for number of metastatic lymph nodes, tumor size and histologic type by Cox Regression as specified in the SAP. A: By using the subtyping assay of the present invention the effect remains significant (90 vs. 78%, HR 0.409; CI 0.219-0.764). B: By contrast there is no effect when tumor subtyping occurs by IHC (89% vs. 85%, HR 0.674; CI 0.307-1.481).
as §1, §2

[8] = tested on: TNBC tumor patients; experiment: Kaplan Meier analysis of distant metastasis free survival, TNBC tumor patients; type: in vivo, human; conditions: for distant metastasis free survival: 5 year time point; for HR, DMFS: docetaxel vs vinorelbine
From the text: FIG. 19 depicts a Kaplan Meier analysis of distant metastasis free survival of TNBC tumor patients. […] B: IHC-defined TNBC patients show a weak, yet non-significant trend towards longer distant metastasis free survival (82% vs. 72%, HR 0.615; CI 0.284-1,333) when treated with docetaxel as compared to vinorelbine.
as §1, §2

[9] = tested on: luminal A tumor patients; experiment: Kaplan Meier analysis of distant metastasis free survival, luminal A tumor patients; type: in vivo, human; conditions: for HR, DMFS: docetaxel vs vinorelbine; for distant metastasis free survival: 5 year time point
Experimental: FIG. 17 depicts a Kaplan Meier analysis of distant metastasis free survival of luminal A tumor patients.
as §1, §2

[10] = FIG. 14A, HER2-positive defined by RT-qPCR
[11] = FIG. 14B, HER2-positive subtyped by IHC
[12] = FIG. 16A, luminal A defined by RT-qPCR
[13] = FIG. 16B, luminal A defined by IHC
[14] = FIG. 15A, HER2-positive defined by method of the invention (RT-qPCR)
[15] = FIG. 15B, HER2-positive defined by IHC
[16] = FIG. 10B, luminal B defined by IHC, 5 year time point
[17] = FIG. 11A, luminal B by RT-qPCR, adjusted for tumor histologic type by Cox Regression, 5 years
[18] = FIG. 11B, luminal B by IHC, adjusted for tumor histologic type by Cox Regression, 5 years
[19] = FIG. 18A, TNBC defined by RT-qPCR
[20] = FIG. 17A, luminal A defined by RT-qPCR
[21] = FIG. 17B, luminal A IHC-subtyped
[22] = FIG. 10A, luminal B defined by RT-qPCR, 5 year time point, combined with FEC
[23] = FIG. 12A, luminal B defined by RT-qPCR
[24] = FIG. 12B, luminal B defined by IHC

Compound	overall survival [1, 10] [%]	overall survival [1, 11] [%]	overall survival [3, 12] [%]	overall survival [3, 13] [%]	distant metastasis free survival [4, 14] [%]	distant metastasis free survival [4, 15] [%]	overall survival [5, 16] [%]	overall survival [5, 17] [%]	overall survival [5, 18] [%]	overall survival [6, 19] [%]	overall survival ([6]; FIG. 18B, TNBC defined by IHC) [%]	distant metastasis free survival ([7]; FIG. 13A, luminal B by RT-qPCR) [%]	distant metastasis free survival ([7]; FIG. 13B, luminal B by IHC) [%]	distant metastasis free survival ([8]; FIG. 19A, RT-qPCR-defined TNBC) [%]	distant metastasis free survival ([8]; FIG. 19B, IHC-defined TNBC) [%]	distant metastasis free survival [9, 20] [%]	distant metastasis free survival [9, 21] [%]	overall survival [5, 22] [%]	distant metastasis free survival (DMFS) [7, 23] [%]	distant metastasis free survival (DMFS) [7, 24] [%]	also measured
CC(=O)O[C@@]12CO[C@@H]1C[C@H](O)[C@@]1(C)C(=O)[C@H](O)C3=C(C)[C@@H](OC(=O)[C@H](O)[C@@H](NC(=O)OC(C)(C)C)c4ccccc4)C[C@@](O)([C@@H](OC(=O)c4ccccc4)[C@H]21)C3(C)C [docetaxel]	87	86	95	97	80	78	95	97	96	84	88	90	89	74	82	92	93				HR, overall survival ([1]; FIG. 14A, HER2-positive by RT-qPCR): 1.320; HR, overall survival ([1]; FIG. 14B, HER2-positive by IHC): 1.175; adverse effects [2]: more commonly associated with adverse effects; HR, overall survival ([3]; FIG. 16A, luminal A by RT-qPCR): 2.471; HR, overall survival ([3]; FIG. 16B, luminal A by IHC): 0.443; outcome compared to vinorelbine ([3]; luminal A tumors by RT-qPCR, effect does not reach statistical significance): even inferior to vinorelbine; HR, DMFS ([4]; FIG. 15A, HER2-positive by RT-qPCR): 1.070; HR, DMFS ([4]; FIG. 15B, HER2-positive by IHC): 0.975; HR, overall survival ([5]; FIG. 10B, luminal B defined by IHC): 0.617; HR, overall survival ([5]; FIG. 11A, luminal B by RT-qPCR, adjusted for tumor histologic type): 0.232; HR, overall survival ([5]; FIG. 11B, luminal B by IHC, adjusted for tumor histologic type): 0.510; benefit of docetaxel treatment ([5]; luminal B tumors classified by RT-qPCR, FIGS. 10 to 19, vs vinorelbine, combined with FEC): significant benefit; HR, overall survival ([6]; FIG. 18A, TNBC by RT-qPCR): 0.949; HR, overall survival ([6]; FIG. 18B, TNBC by IHC): 0.552; HR, DMFS ([7]; FIG. 13A, luminal B by RT-qPCR, adjusted for metastatic lymph nodes, tumor size, histologic type, docetaxel vs vinorelbine): 0.409; HR, DMFS ([7]; FIG. 13B, luminal B by IHC, adjusted for metastatic lymph nodes, tumor size, histologic type, docetaxel vs vinorelbine): 0.674; HR, DMFS ([8]; FIG. 19A, TNBC by RT-qPCR): 1.211; HR, DMFS ([8]; FIG. 19B, TNBC by IHC): 0.615; HR, DMFS ([9]; FIG. 17A, luminal A by RT-qPCR): 0.826; HR, DMFS ([9]; FIG. 17B, luminal A by IHC): 0.553
CCC1=C[C@@H]2CN(C1)Cc1c([nH]c3ccccc13)[C@@](C(=O)OC)(c1cc3c(cc1OC)N(C)[C@H]1[C@@](O)(C(=O)OC)[C@H](OC(C)=O)[C@]4(CC)C=CCN5CC[C@]31[C@@H]54)C2 [vinorelbine]	91	89	98	93	81	77		88	92	83	80	78	85	78	72	90	88				
docetaxel																		97	89	87	Hazard Ratio [HR], overall survival ([5]; FIG. 10A, luminal B defined by RT-qPCR, docetaxel-FEC vs vinorelbine-FEC): 0.241; HR, DMFS ([7]; FIG. 12A, luminal B defined by RT-qPCR, docetaxel-FEC vs vinorelbine-FEC): 0.471; HR, DMFS ([7]; FIG. 12B, luminal B defined by IHC, docetaxel-FEC vs vinorelbine-FEC): 0.938
vinorelbine							92											89	78	86	
